Common to all, as to assay: growth of human tumour cells (NCI), 48 h
Assay [1] concerns SK-MEL-5 melanoma.
Assay [2] concerns CAKI-1 renal.
For assay [3], the system named is TK-10 renal.
For assay [4], the system named is HCT-116 colon.
The subject of assay [5] is HT29 colon.
The test system of assay [6] is NCI-H226 lung.
In assay [7] the test system is LOX IMVI melanoma.
Assay [8] concerns UACC-257 melanoma.
The test system of assay [9] is MALME-3M melanoma.
Assay [10] has as its system SK-MEL-2 melanoma.

Each structure is given as a SMILES string.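 Values below derive from 48-hour exposures of cells grown in 96-well plates, with endpoints linearly interpolated between the two concentrations bracketing the appropriate inhibition level. GI50: concentration for 50% inhibition of growth. TGI: total growth inhibition.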

Take `COc1cccc(C2C(C#N)=C(N)Oc3cc4c(cc32)OCO4)c1` (stereo not given): the GI50 in [1] is 0.0332 µM; in assay [2], 0.0409 µM; in assay [3], 0.728 µM; in [4], 0.0459 µM; in [5], 0.0417 µM; in assay [6], 0.0455 µM. Besides, the GI50 in [7] was 0.234 µM; in assay [8], 0.0471 µM; in [9] it was 0.0501 µM; in assay [10] it was 0.0301 µM. In addition, the TGI turned out to be 3.76 µM in [1]; 42.6 µM in assay [2]; 48.4 µM in [3]; 11 µM in assay [4]; 2.42 µM in assay [5]; 2.43 µM in assay [6]. Moreover, the TGI in assay [7] turned out to be 17.2 µM; in [8], 28.1 µM; in assay [9] it was 31.4 µM; in assay [10] it was 6.77 µM.
With `N#CCCN(CCC#N)c1ccc(C=Nc2ccc(F)cc2)cc1`, the TGI in [1] is greater than 100 µM; in assay [2], greater than 100 µM; in assay [3] it was greater than 92.6 µM; in assay [4], greater than 100 µM; in assay [5] it was greater than 100 µM; in assay [6], greater than 100 µM. For the same compound, the TGI was greater than 100 µM in assay [7], greater than 100 µM in [8], greater than 100 µM in [9] and greater than 32.3 µM in assay [10].
As for `COc1cc(OC)cc(-c2ccc(-c3ccc(C(=N)N)cn3)s2)c1`, the GI50 was 1.77 µM in assay [1]; 1.73 µM in assay [2]; 2.06 µM in assay [3]; 1.9 µM in assay [4]; 2.11 µM in assay [5]; 10.1 µM in assay [6]. The GI50 in assay [7] is 1.7 µM; in [8], 2.29 µM; in assay [9] it was 1.87 µM; in assay [10], 19.5 µM. Moreover, the TGI in [1] is 3.16 µM; in [2], 3.2 µM; in assay [3], 4.09 µM; in assay [4], 3.64 µM; in assay [5], 4.89 µM; in [6] it was 27.8 µM. The TGI in [7] was determined as 3.2 µM; in [8], 4.49 µM; in assay [9], 3.56 µM; in assay [10] it was 40.3 µM.
With `COc1ccc(C(=O)O/N=C2/CCCCC2CN(C)C)cc1` (stereo not given), the TGI in assay [1], in assay [2], in assay [3], in [4], in assay [5] and in assay [6] was greater than 100 µM in each case. Besides, the TGI in assay [7], in [8], in [9] and in [10] was greater than 100 µM in each case.
`C=C(Cn1c2ccccc2c(=O)c2ccccc21)c1ccc(C(=O)Nc2ccccc2N)cc1`: the GI50 was 4.58 µM in assay [1]; greater than 26 µM in assay [2]; greater than 28.9 µM in assay [3]; 4.5 µM in assay [4]; 2.52 µM in assay [5]; greater than 24.8 µM in assay [6]. Further, the GI50 in [7] was 50.4 µM; in [8], greater than 100 µM; in [9], 6.45 µM; in assay [10], greater than 100 µM. For the same compound, the TGI in assay [1] is greater than 100 µM; in [2] it was greater than 100 µM; in [3], greater than 100 µM; in [4], greater than 100 µM; in [5] it was greater than 33.6 µM; in [6] it was greater than 100 µM. Besides, the TGI in assay [7], in [8], in assay [9] and in [10] was greater than 100 µM in each case.
Regarding `[Cl-].[Gd+3].[O-]/N=C(\c1ccccc1)c1ccccn1.[O-]/N=C(\c1ccccc1)c1ccccn1.[O-]/N=C(\c1ccccc1)c1ccccn1`, the GI50 is 48.9 µM in assay [1]; 42.3 µM in assay [2]; 34.9 µM in [3]; 49.3 µM in [4]; 44.9 µM in assay [5]; 40.4 µM in assay [6]. For the same compound, the GI50 in [7] is 28.5 µM; in assay [8], 86.5 µM; in assay [9], 95.8 µM; in assay [10], 27.1 µM. The TGI in [1], in assay [2], in [3], in [4], in [5] and in [6] was greater than 100 µM in each case. For the same compound, the TGI was 76.5 µM in assay [7], greater than 100 µM in assay [8], greater than 100 µM in [9] and 78.5 µM in [10].
In the case of `Oc1ccccc1C=Nc1nc(OCc2ccccc2)nc2[nH]ncc12`, the GI50 was 15.1 µM in assay [1]; 14.2 µM in assay [2]; 10.6 µM in [3]; 18.4 µM in [4]; 22.5 µM in [5]; 16.5 µM in assay [6]. For the same compound, the GI50 in [7] is 18 µM; in assay [8], 34.2 µM; in [9], 16.6 µM; in [10], 32.2 µM. For the same compound, the TGI in [1] was found to be 29.7 µM; in assay [2], 50.5 µM; in [3], 32.8 µM; in assay [4] it was 41.9 µM; in [5] it was 49.3 µM; in assay [6], 40.6 µM. The TGI is 46.2 µM in assay [7], greater than 100 µM in assay [8], 38.2 µM in assay [9] and greater than 100 µM in [10].
As for `CNCc1ccc(-c2[nH]c3cc(F)cc4c3c2CCNC4=O)cc1`, the GI50 in assay [1] is 14.7 µM; in assay [2], 16.7 µM; in assay [3], 29.2 µM; in assay [4], 13.1 µM; in assay [5] it was 19.5 µM; in assay [6], 15.6 µM. Further, the GI50 in [7] was 12.9 µM; in [8] it was 17 µM; in assay [9], 17 µM; in [10], 20.9 µM. Besides, the TGI in assay [1] is 28.1 µM; in assay [2], 60 µM; in assay [3], 72.7 µM; in assay [4] it was 38.6 µM; in [5], 76.3 µM; in [6], 43.4 µM. Also, the TGI is 29.2 µM in assay [7], 33.2 µM in [8], 36.1 µM in assay [9] and 39.3 µM in assay [10].
